In PubChem BioAssay (NCI) one finds TGI and GI50 data, which are given here for 15 compounds.

Some test systems named below: HL-60(TB) leukemia; HOP-62 NSCLC; K-562 leukemia; NCI-H23 lung; RXF 393 renal; SN12C renal; SNB-19 CNS; SK-MEL-5 melanoma; MCF7 breast.
Common to all, as to experiment: DTP human tumour cell line panel, 48 h

Usually TGI stands for the concentration at which net growth stops. Low readings indicate more potent growth arrest, high ones less potent growth arrest. What is called GI50 is the concentration at which growth is held to half of that of the control.

Where “and” joins values, the source holds several entries; their conditions need not be identical. Identical values can stand only once.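 Each compound was tested at five concentrations against cells in 96-well plates for 48 hours. GI50 marks 50% less growth. TGI denotes the concentration required for complete inhibition of growth.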

In the case of `CC1CCCc2c1c1ccc3c(O)cccc3c1oc2=O` (configuration not stated), the TGI in the assay with HL-60(TB) leukemia is > 100 µM; in the assay on HOP-62 NSCLC, 54.1 µM; in the assay with K-562 leukemia it was > 100 µM; in the assay on NCI-H23 lung, > 100 µM; in the assay with RXF 393 renal, 73.2 µM; with SN12C renal, > 100 µM. The TGI in the assay with SNB-19 CNS is > 100 µM.

With `S=c1sc2cscc2s1`, the TGI in the assay on HL-60(TB) leukemia was 81.5 µM; with HOP-62 NSCLC it was 74.5 µM; in the assay with K-562 leukemia it was > 100 µM; in the assay with NCI-H23 lung, 97.7 µM; with RXF 393 renal, 51.5 µM; in the assay with SK-MEL-5 melanoma it was 70.6 µM. Moreover, the TGI was > 100 µM in the assay with SN12C renal and 46 µM with SNB-19 CNS.

In the case of `CC(=O)[O-].[Zn].c1ccc(/C(=N\Nc2ccccn2)c2ccccn2)cc1`, the TGI was 0.0048 µM and 0.0138 µM with HL-60(TB) leukemia; 1.81 µM in the assay with HOP-62 NSCLC; 2.35 µM in the assay with K-562 leukemia; 19.3 µM with NCI-H23 lung; 1.59 µM in the assay on SK-MEL-5 melanoma; 10.9 µM in the assay with SN12C renal. The TGI in the assay on SNB-19 CNS is 5.73 µM. For the same compound, the GI50 is 0.591 µM in the assay with HOP-62 NSCLC, 0.447 µM in the assay with SK-MEL-5 melanoma and 0.363 µM in the assay on SN12C renal.

For the compound `O=C(NC1C2CC3CC(C2)CC1C3)/C(Cl)=C1/Sc2ccccc2NC1=O` (configuration not stated), the TGI with HL-60(TB) leukemia, with HOP-62 NSCLC, in the assay with K-562 leukemia, with NCI-H23 lung, in the assay on RXF 393 renal and in the assay on SK-MEL-5 melanoma was > 100 µM throughout. Also, the TGI in the assay with SN12C renal and in the assay with SNB-19 CNS was > 100 µM in each case.

Consider `OCC(O)C(O)C(O)c1nn(-c2ccccc2)c2nc3cc(Cl)c(Cl)cc3nc12` (configuration not stated), for which the TGI with HL-60(TB) leukemia is 91.2 µM; in the assay on HOP-62 NSCLC it was > 100 µM; with K-562 leukemia, 44.1 µM; in the assay with NCI-H23 lung, > 100 µM; in the assay with RXF 393 renal it was 47.7 µM; in the assay with SN12C renal it was > 100 µM. In addition, the TGI in the assay with SNB-19 CNS is > 100 µM.

In the case of `C=C1CCCC2[C@](C)(CC3=C(O)C(=O)C=C(OC)C3=O)[C@@H](C)CC[C@]12C` (some centres not stated), the TGI was 9.59 µM in the assay on HL-60(TB) leukemia; > 100 µM with K-562 leukemia; 12.5 µM in the assay with NCI-H23 lung; 10.6 µM with RXF 393 renal; 9.35 µM with SK-MEL-5 melanoma; > 100 µM with SN12C renal.

As to `COc1ccc2c(c1)c(-c1ccc(-c3cn(C)c4ccc(OC)cc34)[nH]1)cn2C`, the GI50 with HL-60(TB) leukemia was 2.36 µM; with HOP-62 NSCLC, 10.1 µM; in the assay on K-562 leukemia it was 1.48 µM; in the assay with MCF7 breast, 5.18 µM; in the assay on NCI-H23 lung, 4.84 µM; in the assay on RXF 393 renal it was 1.4 µM. Also, the GI50 in the assay on SK-MEL-5 melanoma is 4.2 µM; with SN12C renal, 2.77 µM; in the assay on SNB-19 CNS it was 3.34 µM. Moreover, the TGI in the assay on HL-60(TB) leukemia worked out at 5.69 µM; in the assay on HOP-62 NSCLC, 33.5 µM; in the assay with K-562 leukemia, 6.8 µM; with MCF7 breast, 24.4 µM; in the assay on NCI-H23 lung, 33 µM; in the assay with RXF 393 renal it was 3.52 µM. Also, the TGI was found to be 14.4 µM in the assay with SK-MEL-5 melanoma, 10.9 µM with SN12C renal and 14.4 µM with SNB-19 CNS.

With `CC(=O)/C=C1\CC(=O)Nc2ccccc2N1`, the TGI in the assay on HL-60(TB) leukemia, with K-562 leukemia, in the assay with NCI-H23 lung, in the assay with RXF 393 renal, in the assay on SK-MEL-5 melanoma and with SN12C renal was > 100 µM in each case. Further, the total growth inhibition concentration (TGI) in the assay with SNB-19 CNS was > 100 µM.

Turning to `CC(=O)OC1CCC2C(=CCC3C2(C)C(=O)CC2(C)C(C4(C)OC(C(C)C)=CC4=O)C(O)CC32C)C1(C)C` (configuration not stated), the TGI with HOP-62 NSCLC is > 100 µM; in the assay with K-562 leukemia, > 100 µM; with NCI-H23 lung, > 100 µM; in the assay with SK-MEL-5 melanoma, 56.9 µM; in the assay with SN12C renal, > 100 µM; with SNB-19 CNS, > 100 µM.

For the compound `O=C(O)c1ccccc1N=Nc1ccc2oc(=O)c(C(=O)Nc3ccccc3)cc2c1`, the total growth inhibition concentration (TGI) is 66.9 µM with HL-60(TB) leukemia; 97.7 µM in the assay on HOP-62 NSCLC; > 100 µM in the assay with K-562 leukemia; > 100 µM in the assay with NCI-H23 lung; > 100 µM in the assay on RXF 393 renal; 76.8 µM in the assay on SK-MEL-5 melanoma. Besides, the TGI in the assay with SN12C renal and in the assay on SNB-19 CNS was > 100 µM throughout.

Take `CC(C)C(=O)[O-].CC(C)C(=O)[O-].N.N.N.N.[Co+3].[O-][Cl+3]([O-])([O-])[O-]`: the GI50 with HL-60(TB) leukemia, with HOP-62 NSCLC, in the assay with K-562 leukemia, with NCI-H23 lung, in the assay on SK-MEL-5 melanoma and with SN12C renal was > 100 µM each time. The GI50 in the assay with SNB-19 CNS is > 100 µM. For the same compound, the TGI with HL-60(TB) leukemia, in the assay on HOP-62 NSCLC, in the assay on K-562 leukemia, in the assay with NCI-H23 lung, in the assay with SK-MEL-5 melanoma and in the assay on SN12C renal was > 100 µM in each case. Besides, in the assay on SNB-19 CNS, the TGI was > 100 µM.

`CCOC(=O)C(C)(C)Oc1ccc2c(-c3ccc(Cl)cc3)c(-c3ccc(Cl)cc3)c(=O)oc2c1`: the total growth inhibition concentration (TGI) in the assay on HL-60(TB) leukemia, in the assay on HOP-62 NSCLC, in the assay with K-562 leukemia, with NCI-H23 lung, in the assay on RXF 393 renal and in the assay with SK-MEL-5 melanoma was > 100 µM each time. The TGI with SN12C renal and in the assay with SNB-19 CNS was > 100 µM throughout.

For the compound `CCN(CC)c1ccc(N=C2C=C(Cl)C(=O)c3ncccc32)c(C)c1`, the TGI in the assay on HL-60(TB) leukemia turned out to be 4.72 µM; with HOP-62 NSCLC, 25 µM; with K-562 leukemia, 11.1 µM; with NCI-H23 lung, 11.3 µM; in the assay with RXF 393 renal, 17.5 µM; with SK-MEL-5 melanoma, 11.3 µM. For the same compound, the TGI with SN12C renal was 55.1 µM; in the assay on SNB-19 CNS, 89.4 µM.

`CC(NC(=O)C(=O)N/N=C1\C[C@@H](c2ccccc2)Nc2ccccc21)c1ccccc1` (some centres not stated): the TGI in the assay on HL-60(TB) leukemia, in the assay on HOP-62 NSCLC, in the assay on NCI-H23 lung, in the assay with RXF 393 renal, in the assay on SN12C renal and with SNB-19 CNS was > 100 µM each time.

`CCOC(=O)c1ccc(N2C(=O)Cc3ccccc3C2=O)cc1`: the TGI in the assay on K-562 leukemia, in the assay with NCI-H23 lung, in the assay with RXF 393 renal, with SK-MEL-5 melanoma, in the assay on SN12C renal and with SNB-19 CNS was > 100 µM in each case.
